Test results from ChEMBL document CHEMBL3044668, “Synthesis of (substituted benzamidostyryl) lH-benzimidazoles and their screening for anti-inflammatory activity” (Med Chem Res, 2012).

Tests used:
[1] = tested on: Rattus norvegicus; assay: Anti-inflammatory activity against Rattus norvegicus Wistar albino (rat) assessed as inhibition of carrageenan-induced paw edema at 20 mg/kg, ip measured 3 hr after carrageenan challenge by plethysmometer; type: functional; conditions: route intraperitoneal
[2] = tested on: Rattus norvegicus; assay: Gastrointestinal toxicity in Rattus norvegicus Wistar (rat) assessed as ulcer index at 30 mg/kg, po measured after 17 hr; type: organism-based; design: dose 30 mg/kg, route oral; conditions: in vivo
[3] = tested on: Rattus norvegicus; assay: Anti-inflammatory activity against Rattus norvegicus Wistar albino (rat) assessed as inhibition of carrageenan-induced paw edema at 20 mg/kg, ip measured 4 hr after carrageenan challenge by plethysmometer; type: functional; conditions: route intraperitoneal
[4] = tested on: Rattus norvegicus; assay: Anti-inflammatory activity against Rattus norvegicus Wistar albino (rat) assessed as inhibition of carrageenan-induced paw edema at 10 mg/kg, ip measured 3 hr after carrageenan challenge by plethysmometer; type: functional; conditions: route intraperitoneal
[5] = tested on: Rattus norvegicus; assay: Anti-inflammatory activity against Rattus norvegicus Wistar albino (rat) assessed as inhibition of carrageenan-induced paw edema at 10 mg/kg, ip measured 4 hr after carrageenan challenge by plethysmometer; type: functional; conditions: route intraperitoneal
[6] = tested on: Rattus norvegicus; assay: Gastrointestinal toxicity in Rattus norvegicus Wistar (rat) assessed as ulcer index at 20 mg/kg, po measured after 17 hr; type: organism-based; design: dose 20 mg/kg, route oral; conditions: in vivo

Cc1ccc(/C=C(/NC(=O)c2ccccc2)c2nc3ccccc3[nH]2)cc1
inhibition in vivo at 20 mg/kg [1]: 39.4%
UI [2]: 1
inhibition in vivo at 20 mg/kg [3]: 47.4%

O=C(N/C(=C/c1ccccc1)c1nc2ccc([N+](=O)[O-])cc2[nH]1)c1ccccc1
inhibition in vivo at 20 mg/kg [1]: 33.3%
inhibition in vivo at 20 mg/kg [3]: 50%

Cc1ccc2nc(/C(=C\c3ccccc3)NC(=O)c3ccccc3)[nH]c2c1
inhibition in vivo at 20 mg/kg [1]: 27.3%
inhibition in vivo at 20 mg/kg [3]: 46.1%

CN(C)c1ccc(/C=C(/NC(=O)c2ccccc2)c2nc3ccccc3[nH]2)cc1
inhibition in vivo at 20 mg/kg [1]: 18.2%
inhibition in vivo at 20 mg/kg [3]: 34.6%

COc1ccc(/C=C(/NC(=O)c2ccccc2)c2nc3ccccc3[nH]2)cc1
inhibition in vivo at 20 mg/kg [1]: 39.4%
inhibition in vivo at 20 mg/kg [3]: 35.9%

O=C(N/C(=C/c1ccccc1)c1nc2ccccc2[nH]1)c1ccccc1
inhibition in vivo at 20 mg/kg [1]: 39.4%
inhibition in vivo at 20 mg/kg [3]: 46.1%

COc1ccc(/C=C(/NC(=O)c2ccccc2)c2nc3ccc([N+](=O)[O-])cc3[nH]2)cc1
inhibition in vivo at 20 mg/kg [1]: 24.2%
UI [2]: 1.41
inhibition in vivo at 20 mg/kg [3]: 51.3%

O=C(N/C(=C/c1ccccc1Cl)c1nc2ccccc2[nH]1)c1ccccc1
inhibition in vivo at 20 mg/kg [1]: 30.3%
inhibition in vivo at 20 mg/kg [3]: 43.6%

Cc1ccc2nc(/C(=C\c3ccccc3Cl)NC(=O)c3ccccc3)[nH]c2c1
inhibition in vivo at 20 mg/kg [1]: 36.4%
inhibition in vivo at 20 mg/kg [3]: 50%

COc1ccc2c(c1)c(CC(=O)O)c(C)n2C(=O)c1ccc(Cl)cc1 [INDOMETHACIN]
inhibition in vivo at 10 mg/kg [4]: 48.5%
inhibition in vivo at 10 mg/kg [5]: 77.2%
UI [6]: 4.5

O=C(N/C(=C/c1ccccc1Cl)c1nc2ccc([N+](=O)[O-])cc2[nH]1)c1ccccc1
inhibition in vivo at 20 mg/kg [1]: 42.4%
UI [2]: 0.75
inhibition in vivo at 20 mg/kg [3]: 59%

COc1ccc(/C=C(/NC(=O)c2ccccc2)c2nc3ccc(C)cc3[nH]2)cc1
inhibition in vivo at 20 mg/kg [1]: 30.3%
inhibition in vivo at 20 mg/kg [3]: 53.8%

O=C(N/C(=C/c1ccc(O)cc1)c1nc2ccccc2[nH]1)c1ccccc1
inhibition in vivo at 20 mg/kg [1]: 27.3%
inhibition in vivo at 20 mg/kg [3]: 47.4%
